Test results reported in patent US9266904B2, “6-bridged heteroaryldihydropyrimidines for the treatment and prophylaxis of hepatitis B virus infection” (priority 2013, dated 2016).
≈ marks a conversion by molar mass, not a printed value.

Legend:
HBV = HBV infected transgenic mouse or humanized mouse models; cited from earlier work
[1] = system: HBV replication in HepG2.2.15 cells; assay: Anti-HBV activity in vitro in HepG2.2.15 cells (extracellular HBV DNA by qPCR); format: cell-based; details: Hepatitis B virus, HepG2.2.15, Anti-HBV activity in HepG2.2.15 cells; read-out: EC50
In short: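 Constitutively HBV-producing HepG2.2.15 cells were seeded overnight at 37 °C, then treated with half-log serial dilutions of compound (0.5% DMSO final) for five days. Supernatant HBV DNA was extracted and quantified by qPCR; EC50 is the concentration inhibiting HBV replication by 50%.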

[2] = Human microsomal clearance assay; format: in vitro ADME; details: human, 1 μM, pH 7.4
In short: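 Liver microsomes (0.5 mg/mL protein) were incubated with 1 μM compound at 37 °C, pH 7.4 phosphate, with an NADPH-regenerating system. Samples at 0-30 min were quenched and measured by LC-MS/MS for parent loss. No-NADPH controls were included.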

CYP3A4 = details: human, 24 h
Procedure: Human cryopreserved hepatocytes (Life Technologies, Carlsbad, USA) were thawed and cultured in collagen I coated 96-well plates with a density of 52,000 cells/well. After attachment, medium was changed and cells were pre-cultured overnight in hepatocyte maintenance medium (HMM; Lonza, Switzerland).
Test compounds were dosed to the cells next morning at an indicated concentration (up to 10 μM) in HMM culture media containing gentamycin and a constant 0.1% DMSO. Similarly, dilutions of the positive inducer compounds omeprazole (prototypical inducer of human CYP1A2; final concentrations: 1 and 10 μM), phenobarbital (prototypical inducer of human CYP2B6; final concentrations: 100 and 1000 μM) and rifampicin (prototypical inducer of human CYP3A4; final concentrations: 1 and 10 μM) were prepared from 1000 fold DMSO stock solutions in HMM containing gentamycin. Medium change was then performed and cells were exposed for 24 hours to test compounds, positive inducer compounds, or vehicle (0.1% DMSO), respectively.
At the end of the compound exposure period, medium was removed and cells lysed using 100 μL/well MagNA Pure LC RNA isolation tissue lysis buffer (Roche Diagnostics AG, Rotkreuz, Switzerland). Plates were then sealed and frozen at −80° C. until further workup.
mRNA isolation was performed using the MagNA Pure 96 system (Roche Diagnostics AG, Rotkreuz, Switzerland) and the respective cellular RNA large volume kit (Roche Diagnostics AG, Rotkreuz, Switzerland) from thawed samples diluted 1:1 with PBS. The volume of the cell lysis and an elution volume of 100 μL were used. 20 μL of the resulting mRNA suspension was then used for reverse transcription using 20 μL of the transcript or first stand cDNA synthesis kit (Roche prime Supply, Mannheim, Germany). The resulting cDNA was diluted with 40 μL of H2O before using for qRT-PCR. qRT-PCR was performed by using the forward and the reverse primer, the corresponding UPL (all from Microsynth, Balgach, Switzerland) and the Taqman Fast advanced master mix (Applied Biosystems), on an ABI 7900 machine (Applied Biosystems).
qRT-PCR Ct-values for the respective P450s were put into relation to the Ct-value of RN18S1 (microsynth, Balgach, Switzerland) of the same sample. Doing so, a respective Δct-value was calculated. Using the average of all Δct-values for the vehicle control samples, a ΔΔct-value was calculated for each sample (ΔΔct-value(sample)=Δct-value(sample)−average of Δct-value of all vehicle controls). The fold induction of the respective sample was calculated as 2^(−ΔΔct). The individual fold induction values were then averaged per treatment condition (usually n=3 biological replicates).
Relative induction values to the respective positive inducer compound condition (10 μM omeprazole for CYP1A2; 1000 μM Phenobarbital for CYP2B6; 10 μM rifampicin for CYP3A4) were then calculated from the fold induction values as follows: Relative induction(%)=100×(T−V)/(P−V)
T: fold induction of test compound condition
P: fold induction of positive inducer compound
V: fold induction of vehicle controls

[3] = Lyophilisation solubility assay (Lysa); format: physicochemical; details: pH 6.5, aqueous buffer, thermodynamic from solid
In short: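 DMSO was evaporated from 10 mM stocks, and residues were taken up in 0.05 M phosphate buffer pH 6.5, stirred 1 h, shaken 2 h and left overnight. Filtrates were quantified by UV or HPLC-UV against a four-point calibration, in duplicate. Values are in μg/ml, with a lower-bound value when >80% dissolved.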

[4] = Cytotoxicity (CCK-8 cell viability) and selectivity index; format: cell-based, human; details: human, HepDE19 cells; cytotoxicity, concentration resulting in death of 50% of host cells
In short: (§1)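 HepDE19 cells (5×10^3/well) were treated with compounds as for the EC50 runs and, after 5 days, given CCK-8 for 2 h at 37° C. Absorbance was read at OD450 and OD630, and CC50 was taken as the concentration killing 50% of host cells.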

HepDE19 cells = assay: as above; format: cell-based, human; details: CC50 value/EC50 value
In short: as §1

Row | Compound | in vivo efficacy (HBV DNA reduction) (HBV) | EC50 [1] [nM] | CLh [2] [mL/min/kg] | % of Positive control (10 μM Rifampicin) (CYP3A4) [%] | solubility thermodynamic [3] [µg/mL] | CC50 at 5 days [4] [µM] | Selectivity index (CC50/EC50) (HepDE19 cells)
1 | COC(=O)C1=C(C)NC(c2ncc(F)cc2F)=N[C@H]1c1ccc(F)cc1Cl [Bay 41-4109] | demonstrated in vivo efficacy with HBV DNA reduction |  |  |  |  |  | 
2 | COC(=O)C1=C(CN2C3COCC2CC(CC(=O)O)C3)NC(c2nccs2)=N[C@H]1c1ccc(F)cc1Cl (stereo partly drawn) [Example 24, (R)-6-(7-Carboxymethyl-3-oxa-9-aza-bicyclo[3.3.1]non-9-ylmethyl)-4-(2-chloro-4-fluoro-phenyl)-2-thiazol-2-yl-1,4-dihydro-pyrimidine-5-carboxylic acid methyl ester] |  | 13 | 2.6 | 29 | > 621 | > 100 | >7692
3 | CCOC(=O)C1=C(CN2C3COCC2CC(CC(=O)O)C3)NC(c2nccs2)=N[C@H]1c1ccc(F)cc1Cl (stereo partly drawn) [Example 26, (R)-6-(7-Carboxymethyl-3-oxa-9-aza-bicyclo[3.3.1]non-9-ylmethyl)-4-(2-chloro-4-fluoro-phenyl)-2-thiazol-2-yl-1,4-dihydro-pyrimidine-5-carboxylic acid ethyl ester] |  | 13 | 3.5 | 36 | 470 (≈ 835 µM) | 68 | 5231
4 | COC(=O)C1=C(CN2C3COCC2CC(NC(C)=O)C3)NC(c2nccs2)=N[C@H]1c1ccc(F)cc1Cl (stereo partly drawn) [Example 35, (R)-6-(7-Acetylamino-3-oxa-9-aza-bicyclo[3.3.1]non-9-ylmethyl)-4-(2-chloro-4-fluoro-phenyl)-2-thiazol-2-yl-1,4-dihydro-pyrimidine-5-carboxylic acid methyl ester] |  | 6 | 6.4 | 20 |  | 50 | 7813
5 | COC(=O)C1=C(CN2[C@@H]3COC[C@H]2C[C@@H](NS(N)(=O)=O)C3)NC(c2nccs2)=N[C@H]1c1ccc(F)cc1Cl [Example 56, Methyl (4R)-4-(2-chloro-4-fluoro-phenyl)-6-[[(1R,5S)-7-endo-(sulfamoylamino)-3-oxa-9-azabicyclo[3.3.1]nonan-9-yl]methyl]-2-thiazol-2-yl-1,4-dihydropyrimidine-5-carboxylate] |  | 4.4 | 6.1 | 23 |  | 43 | 9766
6 | CCOC(=O)C1=C(CN2[C@@H]3COC[C@H]2C[C@H](CC(=O)O)C3)NC(c2nccs2)=N[C@H]1c1ccc(F)c(F)c1Cl [Example 69, Exo-2-[(1S,5R)-9-[[(4R)-4-(2-chloro-3,4-difluoro-phenyl)-5-ethoxycarbonyl-2-thiazol-2-yl-1,4-dihydropyrimidin-6-yl]methyl]-3-oxa-9-azabicyclo[3.3.1]nonan-7-yl]acetic acid] |  | 3.1 | 2.4 | 21 | 203 (≈ 349 µM) | > 100 | >32258
7 | COC(=O)C1=C(CN2[C@@H]3COC[C@H]2C[C@H](CC(=O)O)C3)NC(c2nccs2)=N[C@H]1c1ccc(F)c(F)c1Cl [Example 73, Exo-2-[(1S,5R)-9-[[(4R)-4-(2-chloro-3,4-difluoro-phenyl)-5-methoxycarbonyl-2-thiazol-2-yl-1,4-dihydropyrimidin-6-yl]methyl]-3-oxa-9-azabicyclo[3.3.1]nonan-7-yl]acetic acid] |  | 3 | 3.6 | 21 | > 654 | 72 | 24083
8 | CCOC(=O)C1=C(CN2[C@@H]3COC[C@H]2C[C@H](CC(=O)O)C3)NC(c2nccs2)=N[C@H]1c1ccc(F)c(F)c1Br [Example 80, Exo-2-[(1S,5R)-9-[[(4R)-4-(2-bromo-3,4-difluoro-phenyl)-5-ethoxycarbonyl-2-thiazol-2-yl-1,4-dihydropyrimidin-6-yl]methyl]-3-oxa-9-azabicyclo[3.3.1]nonan-7-yl]acetic acid] |  | 1.7 | 4.6 | 35 | 221 (≈ 353 µM) | 38 | 22394
9 | COC(=O)C1=C(CN2[C@@H]3C[C@H](CC(=O)O)C[C@H]2C(F)(F)C3)NC(c2nccs2)=N[C@H]1c1cccc(F)c1Cl [Example 88, 2-[(1R,3S,5S)-8-[[(4R)-4-(2-chloro-3-fluoro-phenyl)-5-methoxycarbonyl-2-thiazol-2-yl-1,4-dihydropyrimidin-6-yl]methyl]-6,6-difluoro-8-azabicyclo[3.2.1]octan-3-yl]acetic acid] |  | 1.3 | 0.2 | 39 | 120 (≈ 211 µM) | 52 | 39662
10 | COC(=O)C1=C(CN2C3COCC2C(F)(F)[C@H](CC(=O)O)C3)NC(c2nccs2)=N[C@H]1c1ccc(F)cc1Cl (stereo partly drawn) [Example 126, 2-[(7S)-9-[[(4R)-4-(2-chloro-4-fluoro-phenyl)-5-methoxycarbonyl-2-thiazol-2-yl-1,4-dihydropyrimidin-6-yl]methyl]-6,6-difluoro-3-oxa-9-azabicyclo[3.3.1]nonan-7-yl]acetic acid] |  | 10.3 | 0 | 17 | > 605 | > 100 | >9709
11 | COC(=O)C1=C(CN2C3COCC2CC(CC(=O)O)C3)NC(c2nccs2)=N[C@H]1c1ccc(F)c(F)c1Cl (stereo partly drawn) [Example 135, Endo-2-[9-[[(4R)-4-(2-chloro-3,4-difluoro-phenyl)-5-methoxycarbonyl-2-thiazol-2-yl-1,4-dihydropyrimidin-6-yl]methyl]-3-oxa-9-azabicyclo[3.3.1]nonan-7-yl]acetic acid] |  | 6.5 | 4.2 | 27 | 533 (≈ 940 µM) | > 100 | >15385
